In ChEMBL document CHEMBL1155461, “Emerging targets in osteoporosis disease modification” (J Med Chem, 2010):
pIC50, pKi: −log10 of the molar value.

Tests used:
[1] = test system: Rattus norvegicus; assay: Induction of bone formation in ovariectomized rat assessed as increase in bone mineralizing surface area at 30 mg/kg, po after 28 days (RVb = 30.4%); type: functional
[2] = test system: Rattus norvegicus; assay: Induction of bone formation in ovariectomized rat assessed as bone mineral apposition rate per day at 30 mg/kg, po after 28 days (RVb = 1.43 uM); type: functional
[3] = molecular target: T1, Extracellular calcium-sensing receptor (Homo sapiens, UniProt P41180)
T1 sequence (P41180 whole entry): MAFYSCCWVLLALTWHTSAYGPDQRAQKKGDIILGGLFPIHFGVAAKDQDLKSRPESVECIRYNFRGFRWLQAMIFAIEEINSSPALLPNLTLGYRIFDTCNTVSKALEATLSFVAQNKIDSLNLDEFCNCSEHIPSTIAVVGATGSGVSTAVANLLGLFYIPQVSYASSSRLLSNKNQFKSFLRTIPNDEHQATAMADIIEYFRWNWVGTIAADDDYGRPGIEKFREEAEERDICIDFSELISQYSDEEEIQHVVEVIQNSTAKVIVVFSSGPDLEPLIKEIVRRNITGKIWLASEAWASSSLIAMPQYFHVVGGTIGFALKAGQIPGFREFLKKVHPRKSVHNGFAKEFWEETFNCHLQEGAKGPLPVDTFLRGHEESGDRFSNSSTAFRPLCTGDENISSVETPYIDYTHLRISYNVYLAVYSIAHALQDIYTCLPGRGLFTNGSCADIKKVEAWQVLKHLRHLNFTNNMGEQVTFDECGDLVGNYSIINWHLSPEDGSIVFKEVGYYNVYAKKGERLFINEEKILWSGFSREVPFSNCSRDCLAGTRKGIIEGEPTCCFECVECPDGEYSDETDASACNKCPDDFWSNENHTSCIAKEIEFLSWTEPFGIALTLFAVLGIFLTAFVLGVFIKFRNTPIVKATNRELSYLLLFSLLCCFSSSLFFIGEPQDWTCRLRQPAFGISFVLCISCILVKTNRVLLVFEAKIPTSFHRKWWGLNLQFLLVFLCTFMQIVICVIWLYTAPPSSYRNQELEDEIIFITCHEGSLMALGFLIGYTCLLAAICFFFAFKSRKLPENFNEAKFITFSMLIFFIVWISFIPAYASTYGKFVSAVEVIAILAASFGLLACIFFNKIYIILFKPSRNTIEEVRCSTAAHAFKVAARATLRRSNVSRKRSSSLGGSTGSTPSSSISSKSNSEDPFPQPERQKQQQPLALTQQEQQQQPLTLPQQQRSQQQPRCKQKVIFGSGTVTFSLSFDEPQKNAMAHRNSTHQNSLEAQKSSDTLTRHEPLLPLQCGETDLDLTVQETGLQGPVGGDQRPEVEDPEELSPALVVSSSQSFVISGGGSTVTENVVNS

[4] = Clearance in rat; type: ADME, organism-based; conditions: in vivo
[5] = test system: Homo sapiens; assay: Antiosteoporotic activity in postmenopausal woman with osteoporosis assessed as decrease in bone resorption-associated serum CTX-1 level at 50 mg/kg; type: functional
[6] = test system: Homo sapiens; assay: Antiosteoporotic activity in postmenopausal woman with osteoporosis assessed as increase hip bone mineral density at 50 mg/kg; type: functional, Bone of hip region
[7] = test system: Homo sapiens; assay: Antiosteoporotic activity in postmenopausal woman with osteoporosis assessed as increase lumbar spine bone mineral density at 50 mg/kg; type: functional
[8] = test system: Homo sapiens; assay: Antiosteoporotic activity in postmenopausal woman with osteoporosis assessed as decrease in bone resorption-associated urinary CTX-1 level at 50 mg/kg; type: functional; conditions: Urine
[9] = Selectivity for cathepsin K over cathepsin H
[10] = Selectivity for cathepsin K over cathepsin B
[11] = Selectivity for cathepsin K over cathepsin L
[12] = Selectivity for cathepsin K over cathepsin V
[13] = Selectivity for cathepsin K over cathepsin S
[14] = Selectivity for cathepsin K over cathepsin F
[15] = molecular target: Cathepsin K (Homo sapiens, UniProt P43235); assay: Inhibition of humanized rabbit cathepsin K
[16] = test system: Rattus norvegicus; assay: Induction of bone formation in ovariectomized rat assessed as increase in total bone mineral content at 1 mg/kg, sc administered daily for 6 weeks relative to control; type: functional; conditions: route subcutaneous
[17] = molecular target: Prostaglandin E2 receptor EP1 subtype (Homo sapiens, UniProt P34995); assay: Binding affinity to EP1 receptor
[18] = Induction of osteogenesis in rat ROS 17/2.8 cells assessed as stimulation of cell proliferation at 1 nM; type: functional
[19] = molecular target: Integrin alpha-V/beta-3 (Homo sapiens, UniProt P05106+P06756); assay: Inhibition of integrin alpha-V-beta-3-mediated adhesion of human cells M21 cells; type: cell-based
[20] = test system: MC3T3-E1; assay: Induction of osteogenesis in mouse MC3T3-E1 cells assessed as increase in osteoblast differentiation-associated collagen synthesis at 0.3 uM; type: functional
[21] = test system: MC3T3-E1; assay: Induction of osteogenesis in mouse MC3T3-E1 cells assessed as increase in bone mineralization at 0.3 uM; type: functional
[22] = test system: MC3T3-E1; assay: Induction of osteogenesis in mouse MC3T3-E1 cells assessed as increase in osteoblast differentiation-associated ALP level at 0.3 uM; type: functional
[23] = molecular target: Cannabinoid receptor 1 (Homo sapiens, UniProt P21554)
[24] = test system: MC3T3-E1; assay: Induction of osteogenesis in mouse MC3T3-E1 cells assessed as increase in osteoblast differentiation-associated collagen synthesis at 0.03 uM; type: functional
[25] = test system: MC3T3-E1; assay: Induction of osteogenesis in mouse MC3T3-E1 cells assessed as increase in osteoblast differentiation-associated ALP level at 0.03 uM; type: functional
[26] = test system: MC3T3-E1; assay: Induction of osteogenesis in mouse MC3T3-E1 cells assessed as increase in bone mineralization at 0.03 uM; type: functional
[27] = Half life in po dosed rat; type: ADME, organism-based; conditions: in vivo
[28] = Clearance in po dosed rat; type: ADME, organism-based; conditions: in vivo
[29] = Induction of osteogenesis in rat UMR106 cells assessed as stimulation of cell proliferation at 10 nM; type: functional
[30] = molecular target: Cathepsin K (Homo sapiens, UniProt P43235)
Target sequence in this assay (P43235 whole entry): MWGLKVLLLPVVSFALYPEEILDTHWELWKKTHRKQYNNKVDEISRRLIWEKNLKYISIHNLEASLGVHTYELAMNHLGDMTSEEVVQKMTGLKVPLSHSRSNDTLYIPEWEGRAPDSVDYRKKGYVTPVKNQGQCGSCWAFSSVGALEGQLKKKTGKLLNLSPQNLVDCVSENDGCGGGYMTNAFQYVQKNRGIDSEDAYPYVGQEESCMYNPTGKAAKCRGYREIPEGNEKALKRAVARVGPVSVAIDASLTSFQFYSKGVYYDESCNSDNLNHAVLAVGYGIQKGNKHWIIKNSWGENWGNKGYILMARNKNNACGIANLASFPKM

[31] = test system: Osteoclast; assay: Inhibition of osteoclast differentiation; type: functional, cell-based
[32] = molecular target: Cannabinoid receptor 2 (Homo sapiens, UniProt P34972); assay: Antagonist activity at cannabinoid CB2 receptor; type: functional
Cannabinoid receptor 2, sequence (P34972 whole entry): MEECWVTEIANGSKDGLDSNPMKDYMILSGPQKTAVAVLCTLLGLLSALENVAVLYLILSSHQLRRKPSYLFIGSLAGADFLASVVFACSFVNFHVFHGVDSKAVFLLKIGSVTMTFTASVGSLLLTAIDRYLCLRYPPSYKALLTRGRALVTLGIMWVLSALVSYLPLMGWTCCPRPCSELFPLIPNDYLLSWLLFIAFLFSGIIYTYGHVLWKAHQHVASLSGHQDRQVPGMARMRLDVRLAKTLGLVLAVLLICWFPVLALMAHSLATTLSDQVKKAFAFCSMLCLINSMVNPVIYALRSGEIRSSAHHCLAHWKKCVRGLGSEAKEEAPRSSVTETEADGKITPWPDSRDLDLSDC

Cannabinoid receptor 1, sequence (P21554 whole entry): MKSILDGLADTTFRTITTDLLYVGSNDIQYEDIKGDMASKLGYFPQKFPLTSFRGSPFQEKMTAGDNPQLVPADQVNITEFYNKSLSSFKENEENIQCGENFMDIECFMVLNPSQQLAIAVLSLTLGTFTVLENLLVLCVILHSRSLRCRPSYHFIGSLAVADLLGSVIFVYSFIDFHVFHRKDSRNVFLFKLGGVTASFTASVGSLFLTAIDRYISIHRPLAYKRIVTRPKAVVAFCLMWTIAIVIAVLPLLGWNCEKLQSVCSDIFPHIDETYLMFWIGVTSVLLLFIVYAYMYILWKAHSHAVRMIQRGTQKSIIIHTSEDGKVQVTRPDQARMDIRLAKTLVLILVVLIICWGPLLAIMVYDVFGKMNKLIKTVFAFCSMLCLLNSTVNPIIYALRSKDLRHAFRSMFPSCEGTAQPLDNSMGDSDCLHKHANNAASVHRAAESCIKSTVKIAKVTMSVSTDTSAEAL
Prostaglandin E2 receptor EP1 subtype, sequence (P34995 whole entry): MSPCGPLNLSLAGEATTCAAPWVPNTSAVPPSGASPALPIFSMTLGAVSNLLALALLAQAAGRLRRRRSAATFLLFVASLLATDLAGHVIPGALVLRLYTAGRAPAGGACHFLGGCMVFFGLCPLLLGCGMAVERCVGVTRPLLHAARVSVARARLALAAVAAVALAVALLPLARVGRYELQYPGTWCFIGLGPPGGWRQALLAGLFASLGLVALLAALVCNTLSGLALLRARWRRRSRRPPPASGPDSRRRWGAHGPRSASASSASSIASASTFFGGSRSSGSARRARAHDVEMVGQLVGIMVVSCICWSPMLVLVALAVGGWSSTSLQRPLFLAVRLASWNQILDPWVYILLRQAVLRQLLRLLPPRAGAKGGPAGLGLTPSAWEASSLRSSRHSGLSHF
Integrin alpha-V/beta-3, sequence (P05106 27-788 limits assumed): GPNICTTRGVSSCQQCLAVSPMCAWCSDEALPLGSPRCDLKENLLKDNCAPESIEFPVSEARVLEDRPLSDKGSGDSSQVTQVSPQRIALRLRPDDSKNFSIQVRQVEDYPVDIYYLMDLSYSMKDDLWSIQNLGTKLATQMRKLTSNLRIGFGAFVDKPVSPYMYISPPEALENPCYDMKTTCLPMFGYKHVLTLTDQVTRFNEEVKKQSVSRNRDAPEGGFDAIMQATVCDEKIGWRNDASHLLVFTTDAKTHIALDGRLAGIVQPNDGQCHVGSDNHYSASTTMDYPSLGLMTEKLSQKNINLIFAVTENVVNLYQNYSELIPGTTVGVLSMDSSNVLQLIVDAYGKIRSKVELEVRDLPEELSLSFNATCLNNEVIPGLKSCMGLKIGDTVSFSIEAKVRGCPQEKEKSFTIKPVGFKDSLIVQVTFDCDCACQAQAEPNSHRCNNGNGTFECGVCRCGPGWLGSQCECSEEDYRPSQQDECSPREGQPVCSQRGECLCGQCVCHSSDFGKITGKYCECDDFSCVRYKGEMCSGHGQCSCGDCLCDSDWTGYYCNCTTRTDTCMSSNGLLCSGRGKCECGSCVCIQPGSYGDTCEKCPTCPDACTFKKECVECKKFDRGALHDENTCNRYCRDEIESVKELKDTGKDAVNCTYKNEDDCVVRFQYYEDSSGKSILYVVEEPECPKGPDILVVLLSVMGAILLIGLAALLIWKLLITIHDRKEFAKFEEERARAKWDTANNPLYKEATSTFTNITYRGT
Integrin alpha-V/beta-3, sequence (P06756 31-889 limits assumed): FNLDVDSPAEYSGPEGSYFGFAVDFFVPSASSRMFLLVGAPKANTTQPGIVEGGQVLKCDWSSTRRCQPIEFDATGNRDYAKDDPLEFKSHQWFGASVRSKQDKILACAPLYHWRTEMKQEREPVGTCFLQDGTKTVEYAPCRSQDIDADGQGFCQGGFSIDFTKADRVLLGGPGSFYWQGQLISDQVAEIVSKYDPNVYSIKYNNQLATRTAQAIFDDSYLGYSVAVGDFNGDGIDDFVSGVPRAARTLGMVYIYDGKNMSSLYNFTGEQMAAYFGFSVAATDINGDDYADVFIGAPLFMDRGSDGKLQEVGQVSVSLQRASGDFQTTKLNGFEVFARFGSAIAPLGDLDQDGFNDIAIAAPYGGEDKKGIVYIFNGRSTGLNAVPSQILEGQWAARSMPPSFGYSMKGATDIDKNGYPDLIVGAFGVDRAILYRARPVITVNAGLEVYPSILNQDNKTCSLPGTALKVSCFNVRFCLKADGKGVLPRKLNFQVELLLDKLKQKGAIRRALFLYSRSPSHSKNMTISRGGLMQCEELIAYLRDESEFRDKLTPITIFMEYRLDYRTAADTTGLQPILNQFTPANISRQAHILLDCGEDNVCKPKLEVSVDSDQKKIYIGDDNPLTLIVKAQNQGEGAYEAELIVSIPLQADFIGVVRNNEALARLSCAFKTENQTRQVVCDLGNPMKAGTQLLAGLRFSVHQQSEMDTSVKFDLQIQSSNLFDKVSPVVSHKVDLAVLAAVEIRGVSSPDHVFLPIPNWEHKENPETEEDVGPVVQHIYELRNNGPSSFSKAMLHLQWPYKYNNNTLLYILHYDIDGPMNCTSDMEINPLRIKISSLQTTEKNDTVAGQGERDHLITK
Integrin alpha-V/beta-3, sequence (P06756 891-1048 limits assumed): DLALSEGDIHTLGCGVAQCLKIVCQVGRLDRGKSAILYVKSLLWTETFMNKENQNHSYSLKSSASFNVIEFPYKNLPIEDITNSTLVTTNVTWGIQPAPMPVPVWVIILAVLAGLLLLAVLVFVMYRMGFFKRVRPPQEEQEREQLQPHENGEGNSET

`CN(c1ccccc1CNc1nc(Nc2ccc3c(c2)CC(=O)N3)ncc1C(F)(F)F)S(C)(=O)=O` gave an Activity [1] of 40.6% and a mineral apposition rate [2] of 1.96 µm/day.

`CC(C)(CC1Cc2ccccc2C1)NC[C@@H](O)COc1cc(CCC(=O)O)ccc1C#N` [SB-423562] gave a pIC50 [3] of 7.14 and a clearance [4] of 89 mL/min/kg.

With `CCCN1CCN(c2ccc(C(=O)NC3(C(=O)NCC#N)CCCCC3)cc2)CC1` [BALICATIB] the inhibition in vivo at 50 mg/kg [5] was 61%, the Activity [6] was 2.25% and the Activity [7] was 4.46%. It also gave an inhibition in vivo at 50 mg/kg [8] of 55%.

For `CS(=O)(=O)c1ccc(-c2cn(CC(F)(F)F)nc2[C@@H]2CCC(Cl)(Cl)C[C@H]2C(=O)NC2(C#N)CC2)cc1`, the Selectivity ratio [9] was > 140000, the Selectivity ratio [10] was > 16000 and the Selectivity ratio [11] was 4700. For the same molecule, the Selectivity ratio [12] was 1100, the Selectivity ratio [13] was 4300 and the Selectivity ratio [14] was 110. It also gave a pIC50 [15] of 9.21.

In the case of `CCCCC[C@H](O)/C=C/[C@H]1[C@H](O)CC(=O)[C@@H]1C/C=C\CCCC(=O)O` [DINOPROSTONE], the Activity [16] was 20.6% and the pIC50 [17] was 8.96.

With `C[C@@H]1O[C@@H](O[C@H]2[C@H](Oc3cc(O)c4c(c3)O[C@H](c3ccc(O)cc3)CC4=O)O[C@H](CO)[C@@H](O)[C@@H]2O)[C@H](O)[C@H](O)[C@H]1O` [NARINGIN] the Activity [18] was 150%.

Molecule `N=C(N)N=C(N)Nc1cc(Cl)cc(Cl)c1` has a pIC50 [19] of 7.47.

`CO[C@@]1(C)CC/C=C(\C)CCC2=C(C)CO[C@H]2/C=C(\C)CC[C@@H]1O` gave an Activity [20] of 108.2%, an Activity [21] of 110.6% and an Activity [22] of 127.8%.

For `CCCCCCC(C)(C)c1cc(OC)c([C@H]2C=C(CO)[C@@H]3C[C@H]2C3(C)C)c(OC)c1`, the pKi [23] was ≤ 5.00.

In the case of `COc1cc([C@H]2OC[C@H](Cc3cc(OC)c(O[C@@H]4O[C@H](CO)[C@@H](O)[C@H](O)[C@H]4O)c(OC)c3)[C@@H]2CO)cc(OC)c1O` [MANGLIESIDE E], the Activity [24] was 118%, the Activity [25] was 112% and the Activity [26] was 109%.

`O=C(O)c1ccc(CCCN2C(=O)CC[C@@H]2CC[C@@H](O)Cc2cccc(C(F)(F)F)c2)s1` gave a half-life [27] of 12 min and a CL/F [28] of 70 mL/min/kg.

For `O=c1c(O[C@@H]2O[C@H](CO)[C@@H](O)[C@H](O)[C@H]2O)c(-c2ccc(O)cc2)oc2cc(O[C@@H]3O[C@@H](CO)[C@H](O)[C@H]3O)cc(O)c12`, the Activity [29] was 35.9%.

With `CN1CCN(c2nc(-c3ccc(C(=O)NC4(C(=O)N[C@@H]5C(=O)N[C@@H]5Oc5ccccc5)CCCCC4)cc3)cs2)CC1` the pKi [30] was 8.32, the Selectivity ratio [10] was 71 and the Selectivity ratio [11] was 500. The Selectivity ratio [13] was 3540.

In the case of `CC(C)(C)Cn1c(CN2C(=O)CC3(CCNCC3)C2=O)cc2cnc(C#N)nc21`, the pIC50 [30] was > 9.00, the Selectivity ratio [11] was > 1000 and the Selectivity ratio [13] was > 10000.

For `COc1ccc(C(=O)c2c(C)n(CCN3CCOCC3)c3cc(I)ccc23)cc1`, the pIC50 [31] was 6.48 and the pIC50 [32] was 5.14.
